The molecules below were run against T1, human recombinant mGluR5 (Homo sapiens, UniProt P41594) (assay: positive modulation of mGluR5, calcium based FLIPR assay). Details: HEK 293 cell line expressing human recombinant mGluR5; EC50 of the modulation from peak Ca fluorescence signal after glutamate at approx. 5% basal stimulation.
T1 construct: expressed in transfected cells; host or cells: HEK 293
T1 sequence (P41594 21-1212): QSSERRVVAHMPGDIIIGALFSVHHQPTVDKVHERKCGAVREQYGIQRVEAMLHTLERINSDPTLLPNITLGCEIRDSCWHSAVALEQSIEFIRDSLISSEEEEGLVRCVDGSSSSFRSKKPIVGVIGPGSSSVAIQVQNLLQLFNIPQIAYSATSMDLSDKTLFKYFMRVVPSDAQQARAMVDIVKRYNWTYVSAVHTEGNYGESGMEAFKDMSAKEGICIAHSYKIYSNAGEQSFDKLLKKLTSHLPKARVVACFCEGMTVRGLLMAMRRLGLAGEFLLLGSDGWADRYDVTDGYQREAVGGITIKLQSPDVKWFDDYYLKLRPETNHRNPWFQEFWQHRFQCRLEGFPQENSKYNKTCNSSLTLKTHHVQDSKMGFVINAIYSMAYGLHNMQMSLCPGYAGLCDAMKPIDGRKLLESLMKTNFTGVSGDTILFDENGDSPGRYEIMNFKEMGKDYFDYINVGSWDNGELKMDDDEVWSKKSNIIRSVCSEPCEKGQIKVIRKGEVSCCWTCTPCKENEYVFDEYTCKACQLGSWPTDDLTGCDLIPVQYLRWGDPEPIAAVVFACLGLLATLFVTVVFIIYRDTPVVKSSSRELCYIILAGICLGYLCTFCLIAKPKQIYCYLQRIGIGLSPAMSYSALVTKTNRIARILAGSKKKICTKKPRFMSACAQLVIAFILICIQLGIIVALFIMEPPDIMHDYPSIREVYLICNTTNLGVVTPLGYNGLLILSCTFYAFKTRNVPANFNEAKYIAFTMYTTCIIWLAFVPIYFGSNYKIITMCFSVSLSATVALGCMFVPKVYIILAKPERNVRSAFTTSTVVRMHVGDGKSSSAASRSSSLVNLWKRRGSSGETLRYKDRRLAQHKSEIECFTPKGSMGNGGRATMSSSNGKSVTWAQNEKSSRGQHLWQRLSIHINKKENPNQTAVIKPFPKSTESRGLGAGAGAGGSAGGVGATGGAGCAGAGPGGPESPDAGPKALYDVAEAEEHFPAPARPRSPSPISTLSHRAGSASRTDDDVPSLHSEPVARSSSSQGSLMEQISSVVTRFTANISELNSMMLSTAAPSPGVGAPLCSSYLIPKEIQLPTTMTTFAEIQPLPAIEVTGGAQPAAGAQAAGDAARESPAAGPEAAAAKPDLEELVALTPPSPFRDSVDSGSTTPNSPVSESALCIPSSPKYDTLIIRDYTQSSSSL
Procedure, shortened: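 HEK 293 cells expressing human recombinant mGluR5, Calcium-4 dye-loaded in Ringer solution pH 7.4. Compound (1% DMSO final) preincubated 5 min, then glutamate at ~5% of maximal effect added; peak Ca2+ fluorescence gives EC50 by nonlinear regression, normalized to DMSO (100%) and 10 μM CDPPB (200%) controls.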
An EC50 of 23 nM was found for `CCc1nnc(N2CCN(C(=O)Cn3nc(-c4ccc(F)c(C)c4)cc3-c3ccccc3)CC2)o1` [Example 7.02.160] in this work.
An EC50 of 35 nM was found for `COc1nc2c(s1)CCN(C(=O)Cn1nc(-c3ccc(F)c(C)c3)cc1-c1ccccc1)CC2` [Example 7.02.161] in this work.
An EC50 of 120 nM was found for `CCc1cc(-c2ccc(F)c(C)c2)nn1CC(=O)N1CCN(c2nnc(C(F)(F)F)s2)CC1` [Example 7.02.162] in this work.
An EC50 of 122 nM was found for `CCc1nnc(N2CCN(C(=O)Cn3nc(-c4ccc(F)c(C)c4)cc3CC)CC2)o1` [Example 7.02.163] in this work.
An EC50 of 46 nM was found for `CCc1cc(-c2ccc(F)c(C)c2)nn1CC(=O)N1CCc2nc(OC)sc2CC1` [Example 7.02.164] in this work.
An EC50 of 18 nM was found for `Cc1coc(N2CCN(C(=O)Cn3nc(-c4ccc(F)c(C)c4)cc3-c3ccccc3)CC2)n1` [Example 7.02.165] in this work.
An EC50 of 149 nM was found for `CCCc1cc(-c2ccc(F)c(C)c2)nn1CC(=O)N1CCN(c2nc(C)co2)CC1` [Example 7.02.166] in this work.
An EC50 of 370 nM was found for `CCc1cc(-c2ccc(F)c(C)c2)nn1CC(=O)N1CCN(c2nc(C)co2)CC1` [Example 7.02.167] in this work.
An EC50 of 604 nM was found for `Cc1coc(N2CCN(C(=O)Cn3nc(-c4ccc(F)c(C)c4)cc3C)CC2)n1` [Example 7.02.168] in this work.
An EC50 of 20 nM was found for `Cc1noc(N2CCN(C(=O)Cn3nc(-c4ccc(F)c(C)c4)cc3-c3ccccc3)CC2)n1` [Example 7.02.169] in this work.
An EC50 of 30 nM was found for `Cc1nc2c(s1)CCN(C(=O)Cn1nc(-c3ccc(F)c(C)n3)cc1-c1ccccc1)CC2` [Example 7.02.170] in this work.
An EC50 of 68 nM was found for `Cc1nc(-c2cc(-c3ccccc3)n(CC(=O)N3CCc4nc(N)sc4CC3)n2)ccc1F` [Example 7.02.171] in this work.
An EC50 of 64 nM was found for `Cc1nc2c(s1)CN(C(=O)Cn1nc(-c3ccc(F)c(C)n3)cc1-c1ccccc1)C2` [Example 7.02.172] in this work.
An EC50 of 38 nM was found for `Cc1nc2c(o1)CN(C(=O)Cn1nc(-c3ccc(F)c(C)n3)cc1-c1ccccc1)C2` [Example 7.02.173] in this work.
An EC50 of 39 nM was found for `Cc1nc(N2CCN(C(=O)Cn3nc(-c4ccc(F)c(C)n4)cc3-c3ccccc3)CC2)no1` [Example 7.02.174] in this work.
An EC50 of 59 nM was found for `Cc1nc2c(s1)CCN(C(=O)Cn1nc(-c3cc(C)c(F)cn3)cc1-c1ccccc1)CC2` [Example 7.02.175] in this work.
An EC50 of 221 nM was found for `Cc1nc2c(s1)CN(C(=O)Cn1nc(-c3cc(C)c(F)cn3)cc1-c1ccccc1)C2` [Example 7.02.176] in this work.
An EC50 of 111 nM was found for `Cc1nc2c(o1)CN(C(=O)Cn1nc(-c3cc(C)c(F)cn3)cc1-c1ccccc1)C2` [Example 7.02.177] in this work.
An EC50 of 69 nM was found for `Cc1nc(N2CCN(C(=O)Cn3nc(-c4cc(C)c(F)cn4)cc3-c3ccccc3)CC2)no1` [Example 7.02.178] in this work.
An EC50 of 236 nM was found for `Cc1nnc(N2CCN(C(=O)Cn3nc(-c4ccc(F)c(C)n4)cc3-c3ccccc3)CC2)o1` [Example 7.02.179] in this work.
An EC50 of 1070 nM was found for `Cc1nnc(N2CCN(C(=O)Cn3nc(-c4cc(C)c(F)cn4)cc3-c3ccccc3)CC2)o1` [Example 7.02.180] in this work.
An EC50 of 398 nM was found for `CCc1cc(-c2cc(C)c(F)c(C)c2)nn1CC(=O)N1Cc2nc(C)sc2C1` [Example 7.02.181] in this work.
An EC50 of 65 nM was found for `CCc1cc(-c2cccc(C#N)c2)nn1CC(=O)N1CC=C(c2ncc(C)o2)CC1` [Example 7.02.182] in this work.
An EC50 of 330 nM was found for `CCc1cc(-c2cccc(C#N)c2)nn1CC(=O)N1CCC(c2ncc(C)o2)CC1` [Example 7.02.183] in this work.
An EC50 of 132 nM was found for `CCc1cc(-c2cccc(C#N)c2)nn1CC(=O)N1CCc2nc(C)sc2CC1` [Example 7.02.184] in this work.
An EC50 of 258 nM was found for `CCc1cc(-c2cccc(C#N)c2)nn1CC(=O)N1CCc2nc(N)sc2CC1` [Example 7.02.185] in this work.
An EC50 of 326 nM was found for `CCc1cc(-c2cccc(C#N)c2)nn1CC(=O)N1Cc2nc(C)sc2C1` [Example 7.02.186] in this work.
An EC50 of 1610 nM was found for `CCc1cc(-c2cccc(C#N)c2)nn1CC(=O)N1CCN(c2nnc(C)o2)CC1` [Example 7.02.187] in this work.
An EC50 of 19 nM was found for `Cc1cnc(C2=CCN(C(=O)Cn3nc(-c4cccc(C#N)c4)cc3-c3ccccc3)CC2)o1` [Example 7.02.188] in this work.
An EC50 of 15 nM was found for `Cc1nc2c(s1)CCN(C(=O)Cn1nc(-c3cccc(C#N)c3)cc1-c1ccccc1)CC2` [Example 7.02.189] in this work.
An EC50 of 29 nM was found for `N#Cc1cccc(-c2cc(-c3ccccc3)n(CC(=O)N3CCc4nc(N)sc4CC3)n2)c1` [Example 7.02.190] in this work.
An EC50 of 80 nM was found for `Cc1nc2c(s1)CN(C(=O)Cn1nc(-c3cccc(C#N)c3)cc1-c1ccccc1)C2` [Example 7.02.191] in this work.
An EC50 of 82 nM was found for `Cc1nnc(N2CCN(C(=O)Cn3nc(-c4cccc(C#N)c4)cc3-c3ccccc3)CC2)o1` [Example 7.02.192] in this work.
An EC50 of 290 nM was found for `Cc1nnc(C2CCN(C(=O)Cn3nc(-c4cccc(C#N)c4)cc3-c3ccccc3)CC2)o1` [Example 7.02.193] in this work.
An EC50 of 63 nM was found for `Cc1cnc(C2CCN(C(=O)Cn3nc(-c4cccc(C#N)c4)cc3-c3ccccc3)CC2)o1` [Example 7.02.194] in this work.
An EC50 of 2 nM was found for `Cc1nc(N2CCN(C(=O)Cn3nc(-c4ccc(F)c(C)c4)cc3-c3ccccc3)CC2)no1` [Example 7.02.195] in this work.
An EC50 of 43 nM was found for `CCc1cc(-c2ccc(F)c(C)c2)nn1CC(=O)N1CCN(c2noc(C)n2)CC1` [Example 7.02.196] in this work.
An EC50 of 90 nM was found for `Cc1cccc(-c2cc(-c3ccccc3)n(CC(=O)N3CCC(c4nnc(C)o4)CC3)n2)c1` [Example 7.02.197] in this work.
An EC50 of 6 nM was found for `Cc1cccc(-c2cc(-c3ccccc3)n(CC(=O)N3CCc4nc(C)sc4CC3)n2)c1` [Example 7.02.198] in this work.
An EC50 of 16 nM was found for `Cc1cccc(-c2cc(-c3ccccc3)n(CC(=O)N3CCc4nc(N)sc4CC3)n2)c1` [Example 7.02.199] in this work.
An EC50 of 24 nM was found for `Cc1cccc(-c2cc(-c3ccccc3)n(CC(=O)N3Cc4nc(C)sc4C3)n2)c1` [Example 7.02.200] in this work.
An EC50 of 171 nM was found for `COc1cc(C2CCN(C(=O)Cn3nc(-c4cccc(C)c4)cc3-c3ccccc3)CC2)ncn1` [Example 7.02.201] in this work.
An EC50 of 19 nM was found for `COc1cc(C2=CCN(C(=O)Cn3nc(-c4cccc(C)c4)cc3-c3ccccc3)CC2)ncn1` [Example 7.02.202] in this work.
An EC50 of 178 nM was found for `COc1cnc(C2CCN(C(=O)Cn3nc(-c4cccc(C)c4)cc3-c3ccccc3)CC2)nc1` [Example 7.02.203] in this work.
An EC50 of 47 nM was found for `COc1cnc(C2=CCN(C(=O)Cn3nc(-c4cccc(C)c4)cc3-c3ccccc3)CC2)nc1` [Example 7.02.204] in this work.
An EC50 of 18 nM was found for `CCc1cc(-c2ccc(F)c(C)c2)nn1CC(=O)N1CC=C(c2ncc(C)o2)CC1` [Example 7.02.205] in this work.
An EC50 of 6 nM was found for `CCCc1cc(-c2ccc(F)c(C)c2)nn1CC(=O)N1CC=C(c2ncc(C)o2)CC1` [Example 7.02.206] in this work.
An EC50 of 70 nM was found for `CCc1cc(-c2ccc(F)c(C)c2)nn1CC(=O)N1CCC(c2ncc(C)o2)CC1` [Example 7.02.207] in this work.
An EC50 of 36 nM was found for `CCCc1cc(-c2ccc(F)c(C)c2)nn1CC(=O)N1CCC(c2ncc(C)o2)CC1` [Example 7.02.208] in this work.
An EC50 of 61 nM was found for `CCCc1cc(-c2ccc(F)c(C)c2)nn1CC(=O)N1CCN(c2nnc(C)o2)CC1` [Example 7.02.209] in this work.
An EC50 of 145 nM was found for `CCCc1cc(-c2ccc(F)c(C)c2)nn1CC(=O)N1CCC(c2nnc(C)o2)CC1` [Example 7.02.210] in this work.
An EC50 of 13 nM was found for `CCCc1cc(-c2ccc(F)c(C)c2)nn1CC(=O)N1CCN(c2noc(C)n2)CC1` [Example 7.02.211] in this work.
An EC50 of 3 nM was found for `Cc1nc2c(o1)CN(C(=O)Cn1nc(-c3ccc(F)c(C)c3)cc1-c1ccccc1)C2` [Example 7.02.212] in this work.
An EC50 of 26 nM was found for `CCc1cc(-c2ccc(F)c(C)c2)nn1CC(=O)N1Cc2nc(C)oc2C1` [Example 7.02.213] in this work.
An EC50 of 11 nM was found for `CCCc1cc(-c2ccc(F)c(C)c2)nn1CC(=O)N1Cc2nc(C)oc2C1` [Example 7.02.214] in this work.
An EC50 of 9 nM was found for `CCCc1cc(-c2ccc(F)c(C)c2)nn1CC(=O)N1CCc2nc(C)oc2CC1` [Example 7.02.215] in this work.
An EC50 of 6 nM was found for `Cc1cc(-c2cc(-c3ccccc3)n(CC(=O)N3CCN(c4nccs4)CC3)n2)ccc1F` [Example 7.02.216] in this work.
An EC50 of 56 nM was found for `CCc1cc(-c2ccc(F)c(C)c2)nn1CC(=O)N1CCN(c2nccs2)CC1` [Example 7.02.217] in this work.
An EC50 of 54 nM was found for `CCc1nnc(C2CCN(C(=O)Cn3nc(-c4ccc(F)c(C)c4)cc3-c3ccccc3)CC2)o1` [Example 7.02.218] in this work.
An EC50 of 209 nM was found for `CCc1nnc(C2CCN(C(=O)Cn3nc(-c4ccc(F)c(C)c4)cc3CC)CC2)o1` [Example 7.02.219] in this work.
An EC50 of 290 nM was found for `CCc1cc(-c2ccc(F)c(C)c2)nn1CC(=O)N1CCN(c2nnc(C)o2)CC1` [Example 7.02.220] in this work.
An EC50 of 4 nM was found for `Cc1nc2c(s1)CCN(C(=O)Cn1nc(-c3ccc(OC(F)F)cc3)cc1-c1ccccc1)CC2` [Example 7.02.221] in this work.
An EC50 of 23 nM was found for `Cc1nc2c(s1)CN(C(=O)Cn1nc(-c3ccc(OC(F)F)cc3)cc1-c1ccccc1)C2` [Example 7.02.222] in this work.
An EC50 of 13 nM was found for `Cc1nc2c(o1)CN(C(=O)Cn1nc(-c3ccc(OC(F)F)cc3)cc1-c1ccccc1)C2` [Example 7.02.223] in this work.
An EC50 of 2 nM was found for `Cc1nc(N2CCN(C(=O)Cn3nc(-c4ccc(OC(F)F)cc4)cc3-c3ccccc3)CC2)no1` [Example 7.02.224] in this work.
An EC50 of 17 nM was found for `Cc1nnc(N2CCN(C(=O)Cn3nc(-c4ccc(OC(F)F)cc4)cc3-c3ccccc3)CC2)o1` [Example 7.02.225] in this work.
An EC50 of 11 nM was found for `Cc1cnc(N2CCN(C(=O)Cn3nc(-c4ccc(OC(F)F)cc4)cc3-c3ccccc3)CC2)o1` [Example 7.02.226] in this work.
An EC50 of 35 nM was found for `COCc1nnc(C2CCN(C(=O)Cn3nc(-c4ccc(F)c(C)c4)cc3-c3ccccc3)CC2)o1` [Example 7.02.227] in this work.
An EC50 of 398 nM was found for `CCc1cc(-c2ccc(F)c(C)c2)nn1CC(=O)N1CCC(c2nnc(COC)o2)CC1` [Example 7.02.228] in this work.
An EC50 of 31 nM was found for `Cc1cc(-c2cc(-c3ccccc3)n(CC(=O)N3Cc4cccnc4C3)n2)ccc1F` [Example 7.02.229] in this work.
An EC50 of 878 nM was found for `CCc1cc(-c2ccc(F)c(C)c2)nn1CC(=O)N1Cc2cccnc2C1` [Example 7.02.230] in this work.
An EC50 of 19 nM was found for `Cc1nc2n(n1)CCN(C(=O)Cn1nc(-c3ccc(F)c(C)c3)cc1-c1ccccc1)CC2` [Example 7.02.231] in this work.
